Article PMC3973950, “Synthesis of 5-arylidine amino-1,3,4-thiadiazol-2-[(N-substituted benzyol)]sulphonamides endowed with potent antioxidants and anticancer activity induces growth inhibition in HEK293, BT474 and NCI-H226 cells” (Medicinal Chemistry Research, 2013)

Legend:
[1] = tested on: BT474 (breast cancer cell line); assay: In vitro cytotoxicity by MTT assay, BT474; format: cell-based; conditions: Homo sapiens, 72 h, read-out: % cytotoxicity (100 − % cell survival) of BT474 cell line; for cytotoxicity at 0.005 µM: BT-474, 0.005 μM; for cytotoxicity at 0.015 µM: BT-474, 0.015 μM; for cytotoxicity at 0.045 µM: BT-474, 0.045 μM; for cytotoxicity at 0.13 µM: BT-474, 0.13 μM; for cytotoxicity at 0.41 µM: BT-474, 0.41 μM; for cytotoxicity at 1.23 µM: BT-474, 1.23 μM; for cytotoxicity at 3.7 µM: BT-474, 3.7 μM; for cytotoxicity at 11.11 µM: BT-474, 11.11 μM; for cytotoxicity at 33.33 µM: BT-474, 33.33 μM; for cytotoxicity at 100 µM: BT-474, 100 μM
Procedure: (§1) The cancer cell line cultures of HEK 293 ([…]), BT474 (breast cancer cell line) and NCI-H226 (lung cancer) were obtained from Pasteur Institute of India, Coonoor, India, and were cultured in RPMI-1640 and 10 % heat-[…] New born calf serum with antibiotics [penicillin ([…]), streptomycin (100 μg/mL) and amphotericin B (25 μg/mL)]. The cells were maintained at 37 °C in a humidified atmosphere with 5 % CO2 and were subcultured twice a week.
(§2) The monolayer cell culture (100 μL) was trypsinized, and the cell count was adjusted to […] using medium containing 10 % new born calf serum. To each well of the 96-well microtitre plate, the diluted cell suspension (approximately 10,000 cells) (0.1 mL) was added and kept for 24 h in incubator at 37 °C in 5 % CO2 atmosphere for cell monolayer formation. After 24 h, when a partial monolayer was formed at the bottom of the well, the supernatant was flicked off, the monolayer was washed once, and different drugs, i.e. synthesized compounds (100 μL), were added to the cells in microtitre plates. The plates were then incubated at 37 °C for 3 days in 5 % CO2 atmosphere, and microscopic examination was carried out and observations recorded every 24 h. After 72 h, the sample solution in the wells was flicked off; MTT dye ([…]) was added to each well; plates were gently shaken and incubated for 4 h at 37 °C in 5 % CO2 incubator. The supernatant was removed and propanol (50 μL) was added; the plates were gently shaken to solubilize the formed formazan. The absorbance was measured using a microplate reader at a wavelength of 490 nm (Edmondson et al., [1988]; Prasad et al., [2005]; Chiruvella et al., [2008]; Chang et al., [2007]).

[2] = In vitro cytotoxicity by MTT assay, NCI-H226; format: cell-based; conditions: human, NCI-H226 lung cancer cells, 0.015 μM, read-out: % Cytotoxicity (100 − % cell survival) of NCI-H226 cell line
Procedure: as §1, §2

[3] = tested on: NCI-H226 (lung cancer cell line); assay: In vitro cytotoxicity by MTT assay, NCI-H226; format: cell-based; conditions: Homo sapiens, 72 h, read-out: % Cytotoxicity (100 − % cell survival) of NCI-H226 cell line; for cytotoxicity at 0.005 µM: NCI-H226, 0.005 μM; for cytotoxicity at 0.045 µM: NCI-H226, 0.045 μM; for cytotoxicity at 0.13 µM: NCI-H226, 0.13 μM; for cytotoxicity at 0.41 µM: NCI-H226, 0.41 μM; for cytotoxicity at 1.23 µM: NCI-H226, 1.23 μM; for cytotoxicity at 3.7 µM: NCI-H226, 3.7 μM; for cytotoxicity at 11.11 µM: NCI-H226, 11.11 μM; for cytotoxicity at 33.33 µM: NCI-H226, 33.33 μM; for cytotoxicity at 100 µM: NCI-H226, 100 μM
Procedure: as §1, §2

[4] = In vitro cytotoxicity by MTT assay, HEK 293; format: cell-based, human; conditions: human, HEK 293 cells, read-out: % cytotoxicity (100 − % cell survival) of HEK 293 cell line
Procedure: as §1, §2

Row | Compound | cytotoxicity at 0.005 µM [1] [%] | cytotoxicity at 0.015 µM [1] [%] | cytotoxicity at 0.045 µM [1] [%] | cytotoxicity at 0.13 µM [1] [%] | cytotoxicity at 0.41 µM [1] [%] | cytotoxicity at 1.23 µM [1] [%] | cytotoxicity at 3.7 µM [1] [%] | cytotoxicity at 11.11 µM [1] [%] | cytotoxicity at 33.33 µM [1] [%] | cytotoxicity at 100 µM [1] [%] | cytotoxicity at 72 h, 0.015 µM [2] [%] | cytotoxicity at 0.005 µM [3] [%] | cytotoxicity at 0.045 µM [3] [%] | cytotoxicity at 0.13 µM [3] [%] | cytotoxicity at 0.41 µM [3] [%] | cytotoxicity at 1.23 µM [3] [%] | cytotoxicity at 3.7 µM [3] [%] | cytotoxicity at 11.11 µM [3] [%] | cytotoxicity at 33.33 µM [3] [%] | cytotoxicity at 100 µM [3] [%] | also measured
1 | Nc1nnc(S(=O)(=O)NC(=O)c2ccc(Cl)cc2)s1 [Compound 4g] | 30.6 | 31.4 | 32.1 | 33.2 | 34.1 | 34.9 | 35.2 | 36.2 | 37.8 | 38.2 | 36.1 | 35.8 | 37 | 37.1 | 37.8 | 38.1 | 39.4 | 40.3 | 41.4 | 41.8 | cytotoxicity at 72 h, 0.005 µM [4]: 39.3%; cytotoxicity at 72 h, 0.015 µM [4]: 40.5%; cytotoxicity at 72 h, 0.045 µM [4]: 41.2%; cytotoxicity at 72 h, 0.13 µM [4]: 43.7%; cytotoxicity at 72 h, 0.41 µM [4]: 45.1%; cytotoxicity at 72 h, 1.23 µM [4]: 45.6%; cytotoxicity at 72 h, 3.7 µM [4]: 46.4%; cytotoxicity at 72 h, 11.11 µM [4]: 47.1%; cytotoxicity at 72 h, 33.33 µM [4]: 48.7%; cytotoxicity at 72 h, 100 µM [4]: 50.2%
2 | CC(=O)Nc1ccc(S(=O)(=O)Nc2nnc(S(=O)(=O)NC(=O)c3ccccc3)s2)cc1 [Compound 6a] | 26 | 27.2 | 28 | 28.6 | 29.8 | 30.4 | 30.9 | 31.3 | 32.1 | 32.7 | 31.6 | 30.5 | 32.2 | 32.9 | 33.6 | 35.6 | 36 | 38.2 | 38.9 | 40.9 | cytotoxicity at 72 h, 0.005 µM [4]: 26.5%; cytotoxicity at 72 h, 0.015 µM [4]: 26.8%; cytotoxicity at 72 h, 0.045 µM [4]: 28.2%; cytotoxicity at 72 h, 0.13 µM [4]: 29.9%; cytotoxicity at 72 h, 0.41 µM [4]: 30.1%; cytotoxicity at 72 h, 1.23 µM [4]: 32.2%; cytotoxicity at 72 h, 3.7 µM [4]: 33.6%; cytotoxicity at 72 h, 11.11 µM [4]: 35%; cytotoxicity at 72 h, 33.33 µM [4]: 35.2%; cytotoxicity at 72 h, 100 µM [4]: 35.4%
3 | CC(=O)Nc1ccc(S(=O)(=O)Nc2nnc(S(=O)(=O)NC(=O)c3ccc(N)cc3)s2)cc1 [Compound 6c] | 33.1 | 33.3 | 34.1 | 35 | 35.4 | 36.7 | 37.1 | 37.9 | 38.2 | 39.4 | 32.8 | 30.4 | 33.6 | 34.1 | 34.8 | 34.9 | 35.1 | 36.5 | 38.3 | 39 | cytotoxicity at 72 h, 0.005 µM [4]: 30.5%; cytotoxicity at 72 h, 0.015 µM [4]: 32%; cytotoxicity at 72 h, 0.045 µM [4]: 32.9%; cytotoxicity at 72 h, 0.13 µM [4]: 33.6%; cytotoxicity at 72 h, 0.41 µM [4]: 34.8%; cytotoxicity at 72 h, 1.23 µM [4]: 35.7%; cytotoxicity at 72 h, 3.7 µM [4]: 36.6%; cytotoxicity at 72 h, 11.11 µM [4]: 37.8%; cytotoxicity at 72 h, 33.33 µM [4]: 38.2%; cytotoxicity at 72 h, 100 µM [4]: 38.8%
4 | CC(=O)Nc1ccc(S(=O)(=O)Nc2nnc(S(=O)(=O)NC(=O)c3ccccc3O)s2)cc1 [Compound 6d] | 26.3 | 27.7 | 28.9 | 29.4 | 30.6 | 31 | 32.1 | 32.9 | 33.3 | 33.9 | 36.4 | 35.5 | 37 | 39.1 | 41.2 | 42 | 43.4 | 45.3 | 47.3 | 49.1 | cytotoxicity at 72 h, 0.005 µM [4]: 33.3%; cytotoxicity at 72 h, 0.015 µM [4]: 34.8%; cytotoxicity at 72 h, 0.045 µM [4]: 35.1%; cytotoxicity at 72 h, 0.13 µM [4]: 35.9%; cytotoxicity at 72 h, 0.41 µM [4]: 36.7%; cytotoxicity at 72 h, 1.23 µM [4]: 37.2%; cytotoxicity at 72 h, 3.7 µM [4]: 38.4%; cytotoxicity at 72 h, 11.11 µM [4]: 39.3%; cytotoxicity at 72 h, 33.33 µM [4]: 40.7%; cytotoxicity at 72 h, 100 µM [4]: 41.3%
